One assay deals with EP4 (Homo sapiens (Human), UniProt P35408). Briefly: hEP4 cAMP assay (BT549 breast cancer cells, HTRF cAMP). The assay is classed as cell-based. Particulars: antagonistic activity, PGE2 6 nM. The essentials: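 cAMP accumulation quantified by HTRF competition between cellular cAMP and d2-labeled cAMP for cryptate anti-cAMP antibody. Cells: endogenously EP4-expressing BT549, buffer with 2 mM IBMX; 45 min RT compound preincubation preceded 30 min RT challenge with PGE2 at 6 nM final.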
EP4, sequence (P35408 whole entry): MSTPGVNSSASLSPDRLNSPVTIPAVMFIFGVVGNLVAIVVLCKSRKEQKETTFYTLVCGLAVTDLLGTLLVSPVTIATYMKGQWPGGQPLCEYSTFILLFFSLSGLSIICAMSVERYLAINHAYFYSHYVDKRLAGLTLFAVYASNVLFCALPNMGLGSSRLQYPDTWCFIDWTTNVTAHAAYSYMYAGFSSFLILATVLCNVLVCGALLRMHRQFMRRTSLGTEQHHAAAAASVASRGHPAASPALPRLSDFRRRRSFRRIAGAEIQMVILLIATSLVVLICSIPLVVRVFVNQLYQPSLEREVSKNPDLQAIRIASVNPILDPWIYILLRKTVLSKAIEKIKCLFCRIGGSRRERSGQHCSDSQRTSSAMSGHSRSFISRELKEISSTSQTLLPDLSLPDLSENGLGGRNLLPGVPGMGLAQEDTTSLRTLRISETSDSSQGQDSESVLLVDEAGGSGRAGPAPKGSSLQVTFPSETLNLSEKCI

For another assay, the target named is PTGER4 (EP4) (Homo sapiens (Human), UniProt P35408). The assay can be described thus: cell-based.
PTGER4 (EP4), sequence (P35408 whole entry): as above
A further assay has as its target EP2 (Homo sapiens (Human), UniProt P43116). The assay can be described thus: hEP2 cAMP assay (SF295 glioblastoma cells, HTRF cAMP). The class given is cell-based. Particulars: antagonistic activity. The essentials: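 PGE2-driven cAMP accumulation was measured by HTRF in SF295 cells, which express endogenous EP2 only. Cells in assay buffer with 2 mM IBMX were pre-incubated 45 min at RT, then incubated 30 min at RT. Detection used competition between cellular cAMP and d2-cAMP for a cryptate anti-cAMP antibody.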
Background: cAMP levels reflect the balance of adenylyl cyclase and phosphodiesterase activity.

What is called pIC50 is the negative decadic logarithm of the IC50, by convention in mol/L. Low readings indicate a large IC50, high ones a small IC50.

pIC50: −log10 of the molar value.

EP2, sequence (P43116 whole entry): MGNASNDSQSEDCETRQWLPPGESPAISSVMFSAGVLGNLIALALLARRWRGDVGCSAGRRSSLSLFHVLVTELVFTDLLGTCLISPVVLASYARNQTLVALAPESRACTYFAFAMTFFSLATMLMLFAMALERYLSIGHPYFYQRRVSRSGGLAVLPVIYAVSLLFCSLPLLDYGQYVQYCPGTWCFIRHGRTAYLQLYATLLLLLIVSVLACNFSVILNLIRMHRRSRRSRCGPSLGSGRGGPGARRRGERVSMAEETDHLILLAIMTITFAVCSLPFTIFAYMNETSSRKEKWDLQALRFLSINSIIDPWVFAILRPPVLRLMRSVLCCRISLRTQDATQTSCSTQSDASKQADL

As for `CSc1cc(-c2cc(NCCc3ccc4c(c3)CCC4)ncn2)ccc1C(=O)O` [Ex 185, 4-[6-(2-Indan-5-yl-ethylamino)-pyrimidin-4-yl]-2-methylsulfanyl-benzoic acid], the pIC50 was 6.70 against EP4, 6.59 on PTGER4 (EP4) and 6.34 on EP2.
The matching figures for `CCOc1cc(-c2cc(NCCc3ccc4ccccc4c3C)ncn2)sc1/C=C/C(=O)O` [Ex 130]: 6.97, 7.64 and 6.37.
The matching figures for `CCOc1cc(-c2cc(NCCc3cc4c(cc3OC)OCCCO4)ncn2)sc1C(=O)O` [Ex 21, 3-Ethoxy-5-{6-[2-(8-methoxy-3,4-dihydro-2H-benzo[b][1,4]dioxepin-7-yl)-ethylamino]-pyrimidin-4-yl}-thiophene-2-carboxylic acid]: 7.92, 7.24 and 6.04.
The matching figures for `CCOc1cc(-c2cc(NCCc3ccc4c(c3)OCCC4)ncn2)ccc1CC(=O)O` [Ex 332, {4-[6-(2-Chroman-7-yl-ethylamino)-pyrimidin-4-yl]-2-ethoxy-phenyl}-acetic acid]: 5.82, 6.38 and 4.91.
For `CCOc1cc(-c2cc(NCCc3cc4ccccc4cc3C)ncn2)ccc1C(=O)O` [Ex 240, 2-Ethoxy-4-{6-[2-(3-methyl-naphthalen-2-yl)-ethylamino]-pyrimidin-4-yl}-benzoic acid], the values for the pIC50 at EP4, at PTGER4 (EP4) and on EP2 were 6.46, 6.22 and 6.09, respectively.
For `CCOc1cc(-c2cc(NCCc3cc4c(cc3OC)OCCO4)ncn2)ccc1CC(=O)O` [Ex 175] the same measures were 6.73, 6.75 and 6.52.
For `CSc1cc2c(cc1CCNc1cc(-c3ccc(C(=O)O)c(OC4CCC4)c3)ncn1)OCCO2` [Ex 70, 2-Cyclobutoxy-4-{6-[2-(7-methylsulfanyl-2,3-dihydro-benzo[1,4]dioxin-6-yl)-ethylamino]-pyrimidin-4-yl}-benzoic acid] the same measures were 7.42, 6.68 and 6.36.
The matching figures for `CCOc1cc(-c2cc(NCCc3c(OC)cc4ccccc4c3F)ncn2)sc1C(=O)O` [Ex 3, 3-Ethoxy-5-{6-[2-(1-fluoro-3-methoxy-naphthalen-2-yl)-ethylamino]-pyrimidin-4-yl}-thiophene-2-carboxylic acid]: 8.70, 9.00 and 7.59.
`CCOc1cc(-c2cc(NCCc3ccc4ccsc4c3)ncn2)ccc1C(=O)O` [Ex 167, 4-[6-(2-Benzo[b]thiophen-6-yl-ethylamino)-pyrimidin-4-yl]-2-ethoxy-benzoic acid]: the pIC50 is 6.78 on EP4, 6.44 on PTGER4 (EP4) and 6.15 against EP2.
For the compound `CSc1cc(-c2cc(NCCc3ccc4ccccc4c3)ncn2)ccc1C(=O)O` [Ex 219, 2-Methylsulfanyl-4-[6-(2-naphthalen-2-yl-ethylamino)-pyrimidin-4-yl]-benzoic acid], the pIC50 was 6.89 against EP4, 6.69 against PTGER4 (EP4) and 6.31 on EP2.
For `CCOc1cc(-c2cc(NCCc3cc4ccccc4cc3Cl)ncn2)sc1C(=O)O` [Ex 62, 5-{6-[2-(3-Chloro-naphthalen-2-yl)-ethylamino]-pyrimidin-4-yl}-3-ethoxy-thiophene-2-carboxylic acid] the same measures were 7.49, 7.80 and 6.52.
The matching figures for `CCOc1cc(-c2cc(NCCc3ccc4ccccc4c3N)ncn2)sc1C(=O)O` [Ex 71, 5-{6-[2-(1-Amino-naphthalen-2-yl)-ethylamino]-pyrimidin-4-yl}-3-ethoxy-thiophene-2-carboxylic acid]: 7.41, 7.62 and 6.52.
As for `CCOc1cc(-c2cc(NCCc3ccc4ccccc4c3F)ncn2)ccc1OCC(=O)O` [Ex 136], the pIC50 was 6.92 against EP4, 7.54 on PTGER4 (EP4) and 6.17 against EP2.
The matching figures for `CSc1cc(-c2cc(NCCc3ccc4c(c3)CCCO4)ncn2)ccc1C(=O)O` [Ex 257, 4-[6-(2-Chroman-6-yl-ethylamino)-pyrimidin-4-yl]-2-methylsulfanyl-benzoic acid]: 6.41, 6.38 and 6.55.
The matching figures for `O=C(O)c1ccc(-c2cc(NCCc3ccc4c(c3)OCC4)ncn2)cc1OC1CCC1` [Ex 295]: 6.25, 6.22 and 6.28.
The matching figures for `CCOc1cc(-c2cc(NCCc3ccc4c(c3)c(C)cn4C)ncn2)sc1C(=O)O` [Ex 133]: 6.96, 7.38 and 6.32.
As for `Fc1cc2ncccc2c(F)c1CCNc1cc(-c2ccc3ncccc3c2)ncn1` [Ex 123, [2-(5,7-Difluoro-quinolin-6-yl)-ethyl]-(6-quinolin-6-yl-pyrimidin-4-yl)-amine], the pIC50 was 7.01 against EP4, 6.45 against PTGER4 (EP4) and 6.23 against EP2.
With `CCOc1cc(-c2cc(NCCc3ccc4cc[nH]c4c3)ncn2)ccc1OCC(=O)O` [Ex 194, (2-Ethoxy-4-{6-[2-(1H-indol-6-yl)-ethylamino]-pyrimidin-4-yl}-phenoxy)-acetic acid], the pIC50 against EP4 was 6.67; at PTGER4 (EP4) it was 6.49; on EP2 it was 6.53.
For `CSc1cc(-c2cc(NCCc3ccc4ccsc4c3)ncn2)ccc1C(=O)O` [Ex 176] the same measures were 6.73, 6.75 and 6.53.
As for `CSc1cc(-c2cc(NCCc3ccc4c(c3)OCCC4)ncn2)ccc1C(=O)O` [Ex 285, 4-[6-(2-Chroman-7-yl-ethylamino)-pyrimidin-4-yl]-2-methylsulfanyl-benzoic acid], the pIC50 is 6.29 against EP4, 6.47 on PTGER4 (EP4) and 5.12 on EP2.
Take `CCOc1cc(-c2cc(NCCc3ccc4ccn(CC)c4c3)ncn2)sc1C(=O)O` [Ex 242]: the figures for the pIC50 against EP4, on PTGER4 (EP4) and at EP2 were 6.45, 6.31 and 6.35, respectively.
The matching figures for `CCOc1cc(-c2cc(NCCc3c(F)cc4ncccc4c3F)ncn2)sc1-c1noc(=O)[nH]1` [Example 346, 3-(5-{6-[2-(5,7-Difluoro-quinolin-6-yl)-ethylamino]-pyrimidin-4-yl}-3-ethoxy-thiophen-2-yl)-[1,2,4]oxadiazol-5(4H)-one]: 6.96, 7.24 and 6.55.
For `CCOc1cc(-c2cc(NCCc3ccc4ccn(C)c4c3)ncn2)ccc1OCC(=O)O` [Ex 207] the same measures were 6.61, 6.63 and 6.17.
For `CCOc1cc(-c2cc(NCCc3ccc4scc(C)c4c3)ncn2)ccc1CC(=O)O` [Ex 297], the pIC50 against EP4 was 6.23; on PTGER4 (EP4), 5.67; against EP2, 6.11.
The matching figures for `CCOc1cc(-c2cc(NCCc3cc4cccnc4cc3F)ncn2)sc1C(=N)NO` [Example 347, 3-Ethoxy-5-{6-[2-(7-fluoro-quinolin-6-yl)-ethylamino]-pyrimidin-4-yl}-N-hydroxy-thiophene-2-carboxamidine]: 6.76, 7.51 and 6.31.

The values above are taken from patent publication US11839613B2, “Pyrimidine derivatives as PGE2 receptor modulators” (IDORSIA PHARMACEUTICALS LTD, priority 2017, dated 2023).
